# What was measured:
# SW1573 cells = assay: Western blots of KRAS signaling nodes and cleaved PARP in SW1573 cells; type: cell-based
# Excerpt: (§1) Western blots were used to analyze downstream KRAS signaling nodes (AKT, ERK, RSK, S6) and a marker of apoptosis (cleaved PARP). […] Taxol (paclitaxel) was used as a positive control.
# H358 cells (KRAS G12C) = assay: Western blots of downstream KRAS signaling nodes and apoptosis markers in H358 cells; type: cell-based; settings: for inhibition of downstream KRAS signaling nodes (Western blot) / apoptosis based on cleaved PARP levels: H358 cells; for inhibition of downstream KRAS signaling nodes (Western blot): alone; for apoptosis based on cleaved PARP levels: erlotinib 5 μM; for G1 arrest and induction of apoptosis: H358 cells (FIG. 9, left panel); for apoptosis based on c-caspase 3 levels: H358 cells (FIG. 11)
# Protocol: FIG. 2 depicts western blot analysis of downstream targets of K-Ras signaling. […] Paclitaxel was used as a positive control. The western blots were probed with antibodies for p-AKT, p-ERK, total ERK, p-RSK, p-S6 and cleaved PARP. Cleaved PARP is indicative of apoptosis. B) A549 cells that express the G12S isoform of K-Ras were used a control for K-Ras G12C inhibitor specificity. A549 cells were treated as in A).
# (§2) Western blots were used to analyze downstream KRAS signaling nodes (AKT, ERK, RSK, S6) and a marker of apoptosis (cleaved PARP).
# as §1
# Western blots were used to analyze downstream KRAS signaling nodes (AKT, ERK, RSK, S6) and a marker of apoptosis (cleaved PARP). […] Caspase activity was measured using a standard caspase activity luminescence assay (Capase-Glo, Promega).
# [1] = target: T1, KRAS G12C 1-169, his-tagged protein, GDP-loaded (Homo sapiens, UniProt P01116, G12C); assay: Biochemical assay: covalent binding to KRAS G12C analyzed by mass spectrometry
# T1 construct: KRAS G12C 1-169, his-tagged protein, GDP-loaded
# [2] = system: mutant cell lines (H358, NCI-H23, SW1463, H1792, Calu-1, SW1573); assay: Western blots, KRAS G12C inhibitor with SRC inhibitors in multiple cell lines; type: cell-based; settings: I-272 1 μM
# Excerpt: as §2
# As a control, a non-G12C cell line (A549) was subjected to the same single agent and combination treatments. The KRAS G12C inhibitors show no single agent or additive/synergistic effects in this line.
# [3] = system: mutant cell lines (NCI-H23, SW1573); assay: Western blots, KRAS G12C inhibitor with ruxolitinib or momelotinib; type: cell-based; settings: I-272 1 μM; for apoptosis based on cleaved PARP levels: ruxolitinib or momelotinib 1 and 5 μM
# Protocol: Western blots were used to analyze downstream KRAS signaling nodes (AKT, ERK, S6), transcription factors (STAT3, IκBα), protein marker (TBK1) and a marker of apoptosis (cleaved PARP). Treatment of mutant cell lines (NCI-H23, SW1573) were tested with an exemplary KRAS G12C inhibitor (compound I-272, 1 μM) alone or in combination with one of ruxolitinib (JAK 1/2 inhibitor, 1 and 5 μM) or momelotinib (JAK1/2, TBK1, IKKe inhibitor, 1 and 5 μM). […] Further, there is synergistic p-S6 inhibition in each of the combinations. Synergistic apoptosis strongly occurred when TBK1 and non-canonical NFκB signaling is inhibited.
# Calu-1 cells = assay: Western blots of KRAS signaling nodes and cleaved PARP in Calu-1 cells; type: cell-based; settings: I-272 30, 100, 300, and 1000 nM, Dasatinib 150 nM
# Excerpt: as §2
# [4] = system: mutant cell lines (H358, H1792, MiaPaca2); assay: Western blots, KRAS G12C inhibitor with JAK inhibitor momelotinib in multiple cell lines; type: cell-based
# Protocol: Western blots were used to analyze downstream KRAS signaling nodes (AKT, ERK, S6), a transcription factor (STAT3), and a marker of apoptosis (cleaved PARP). Treatment of mutant cell lines (H358, H1792, MiaPaca2) or a control cell line (A549) was tested with an exemplary KRAS G12C inhibitor (compound I-272, 0.3 and 1 μM) alone or in combination with momelotinib (JAK inhibitor, 5 μM). […] Specifically, when compound I-272 is used in combination with momelotinib (JAK inhibitor) PARP is detected in H358, H1792, and MiaPaca2.
# [5] = system: mutant cells (H358, Calu-1, MiaPaca2, NCI-H23, SW1463, H1792); assay: Western blots / dot blot arrays of signaling pathways maintained or hyper-activated following KRAS G12C inhibition; type: cell-based; settings: 48 hours, versus untreated cell lines
# Excerpt: FIG. 1 provides western blots for identifying synergistic pathways for targeting in combination with KRAS G12C inhibition. Shown are dot blot arrays for detection of phosphorylated receptor tyrosine kinases (p-RTK) and phosphorylated signaling kinases (ie. p-ERK, or p-AKT) for indicated cell lines treated with indicated K-Ras G12C inhibitor. Notable signaling targets and their respective pathways that are induced or maintained following treatment are summarized for various cell lines.
# Western blots were used to analyze downstream KRAS signaling nodes (AKT, ERK, S6, EGFR/HER2, SRC, MET) and a transcription factor (STAT3). […] Sustained or induced pathways were assessed by comparing untreated cell lines with those treated by compound I-272.
# H358 cells = assay: Flow cytometry, cell cycle progression and apoptosis (sub-diploid cells); type: cell-based; settings: single agents
# Protocol: B) The average apoptosis response of NCI-H358, NCI-H1792, NCI-H2122, and SW1573 cell lines generated by flow cytometry as described in A).
# (§3) Apoptosis was measured via flow cytometry. Gated populations=% of subdiploid apoptotic cells.
# as §3
# FIG. 7 depicts apoptosis in NCI-H358 cells treated with II-64 (10 μM), SN38 (5 nM), or a combination treatment (II-64+SN38). […] Apoptosis was measured via flow cytometry. Gated populations=% of subdiploid apoptotic cells.
# Flow cytometry was used to evaluate KRAS G12C inhibitor combination treatments.
# Next, flow cytometry was used to evaluate a KRAS G12C inhibitor in combination with the chemotherapeutic agents paclitaxel or docetaxel.
# [6] = system: KRAS G12C mutant cells lines (H358, H2122, H2030, H1792, Calu-1, MiaPaca2, and NCI-H23); assay: Caspase activity luminescence assay (Capase-Glo) with compound II-64 alone or in combination; type: cell-based; settings: alone
# Protocol: Caspase activity was measured using a standard caspase activity luminescence assay (Capase-Glo, Promega). Taxol (paclitaxel) was used as a positive control.
# [7] = I-74 15 μM, PD0325901 100 nM, GDC0941 1 μM
# [8] = compounds 48-246, measured at 2 h
# [9] = 24 hours, G12C inhibitors 10 μM, GDC0941 2 μM (FIG. 2)
# [10] = I-272 0.3 and 1 μM, alone, 24 hours
# T1 sequence (P01116 1-169 isoform P01116-2 G12C): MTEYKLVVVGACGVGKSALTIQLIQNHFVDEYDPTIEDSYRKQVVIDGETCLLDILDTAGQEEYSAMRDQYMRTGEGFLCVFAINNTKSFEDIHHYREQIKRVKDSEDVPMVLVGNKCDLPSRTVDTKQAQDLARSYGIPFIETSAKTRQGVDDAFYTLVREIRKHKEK
structure (smiles),measurement,setting,value
"Cc1nc(NC(=O)N2CCC[C@H]2C(N)=O)sc1-c1ccnc(C(C)(C)C(F)(F)F)c1 [BYL719, Alpelisib]",apoptosis based on cleaved PARP levels,SW1573 cells,does not induce robust apoptosis
"C=CC(=O)N1CCN(c2ncnc3cc(-c4ccccc4O)c(Cl)cc23)CC1 [Compound I-74, 1-(4-(6-chloro-7-(2-hydroxyphenyl)quinazolin-4-yl)piperazin-1-yl)prop-2-en-1-one]",inhibition of downstream KRAS signaling nodes (Western blot),"H358 cells (KRAS G12C); 15 μM, 24 hours","clear and nearly complete inhibition of p-ERK, p-RSK, and p-S6"
same,apoptosis based on cleaved PARP levels,H358 cells (KRAS G12C); [7],minimal cleaved PARP
same,Binding %,[1]; [8],+++ (+++indicates binding activity greater than 50% and up to 75%)
"C=CC(=O)N1CCN(c2ncnc3cc(-c4c(O)ccc5ccccc45)c(Cl)cc23)CC1 [Compound I-153, 1-(4-(6-chloro-7-(2-hydroxynaphthalen-1-yl)quinazolin-4-yl)piperazin-1-yl)prop-2-en-1-one]",apoptosis based on cleaved PARP levels,H358 cells (KRAS G12C); [9],minimal cleaved PARP
same,inhibition of downstream KRAS signaling nodes (Western blot),"H358 cells (KRAS G12C); 24 hours, 10 μM (FIG. 2)","clear and nearly complete inhibition of p-ERK, p-RSK, and p-S6, with partial inhibition of p-AKT"
same,Binding %,[1]; [8],++++ (++++indicates binding activity greater than 75%)
"C=CC(=O)N1CCN(c2ncnc3c(F)c(-c4ccccc4F)c(Cl)cc23)CC1 [Compound I-158, 1-(4-(6-chloro-8-fluoro-7-(2-fluorophenyl)quinazolin-4-yl)piperazin-1-yl)prop-2-en-1-one]",apoptosis based on cleaved PARP levels,H358 cells (KRAS G12C); [9],minimal cleaved PARP
same,inhibition of downstream KRAS signaling nodes (Western blot),"H358 cells (KRAS G12C); 24 hours, 10 μM (FIG. 2)","clear and nearly complete inhibition of p-ERK, p-RSK, and p-S6, with partial inhibition of p-AKT"
same,Binding %,[1]; [8],++++ (++++indicates binding activity greater than 75%)
"C=CC(=O)N1CCN(c2ncnc3c(F)c(-c4cc(O)cc5ccccc45)c(Cl)cc23)CC1 [Compound I-272, 1-(4-(6-chloro-8-fluoro-7-(3-hydroxynaphthalen-1-yl)quinazolin-4-yl)piperazin-1-yl)prop-2-en-1-one]",inhibition of p-ERK,"[2]; alone, 24 hours","clear and, in some cases (H358, SW1463, Calu-1), nearly complete inhibition of p-ERK"
same,inhibition of p-S6,"[2]; dasatinib 100 nM, 24 hours","inhibition of p-S6 in H358, SW1463, H1792, and Calu-1 cell lines"
same,apoptosis based on cleaved PARP levels,"[2]; dasatinib 100 nM, Saracatinib 2 μM",minimal cleaved PARP
same,Binding %,"[1]; compounds 247-342, measured at 30 min, listed as 272",++++ (++++indicates binding activity greater than 75%)
same,inhibition of p-ERK,"[3]; alone, 24 hours",clear and nearly complete inhibition of p-ERK
same,inhibition of p-S6 and p-AKT,"[3]; alone, 24 hours",inhibition of p-S6 and p-AKT in NCI-H23
same,apoptosis based on cleaved PARP levels,[3],minimal cleaved PARP
same,inhibition of downstream KRAS signaling nodes (Western blot),Calu-1 cells; 24 hours,"clear and, at higher concentrations, nearly complete inhibition of p-ERK and p-RSK"
same,apoptosis based on cleaved PARP levels,Calu-1 cells,minimal cleaved PARP
same,inhibition of S6,[4]; [10],some to nearly complete inhibition of S6 (in H358)
same,inhibition of p-ANK,[4]; [10],some inhibition of p-ANK (in H358)
same,inhibition of p-ERK,[4]; [10],some and nearly complete inhibition of p-ERK (in H1792 and H358 respectfully)
same,induction of apoptosis (cleaved PARP),"[4]; I-272 0.3 and 1 μM, momelotinib 5 μM",some induction of apoptosis as observed by the presence of cleaved PARP (in H358 and MiaPaca2)
same,induction of STAT3,"[4]; I-272 alone, also control cell line A549","induces STAT3 in certain cell lines (slight in H358 and H1792, strong in MiaPaca2 and A549)"
same,sustained or induced pathways following KRAS G12C inhibition,[5],"sustained or induced pathways suggesting targeting with RTK, PI3K, mTOR, SRC, and JAK/STAT inhibitors"
"CS(=O)(=O)N1CCN(Cc2cc3nc(-c4cccc5[nH]ncc45)nc(N4CCOCC4)c3s2)CC1 [GDC0941, 2-(1H-indazol-4-yl)-6-(4-methanesulfonyl-piperazin-1-ylmethyl)-4-morpholin-4-yl-thieno[3,2-d]pyrimidine, reference compound]",G1 arrest and induction of apoptosis,H358 cells (KRAS G12C),G1 arrest with low to modest induction of apoptosis
same,apoptosis based on c-caspase 3 levels,H358 cells (KRAS G12C),does not induce robust apoptosis
same,cell cycle arrest and induction of apoptosis (flow cytometry),H358 cells,G1 arrest with low to modest induction of apoptosis
"C=CC(=O)N1CC(N2CCN(C(=O)CNc3cc(CC)c(Cl)cn3)CC2)C1 [II-74, 1-(3-(4-(2-(5-chloro-4-ethylpyridin-2-ylamino)acetyl)-piperazin-1-yl)azetidin-1-yl)prop-2-en-1-one]",G1 arrest and induction of apoptosis,H358 cells (KRAS G12C),G1 arrest with low to modest induction of apoptosis
same,Binding %,[1]; determined at 2 hrs,+ (+indicates binding activity from 5% to 20%)
O=C(NOC[C@H](O)CO)c1ccc(F)c(F)c1Nc1ccc(I)cc1F [PD0325901],G1 arrest and induction of apoptosis,H358 cells (KRAS G12C),G1 arrest with low to modest induction of apoptosis
same,apoptosis based on cleaved PARP levels,H358 cells (KRAS G12C); [7],does not induce robust apoptosis
"C#Cc1cccc(Nc2ncnc3cc(OCCOC)c(OCCOC)cc23)c1 [erlotinib, reference compound]",caspase activity,[6],did not induce significant caspase activity
same,G1 arrest and induction of apoptosis,H358 cells (KRAS G12C),G1 arrest with low to modest induction of apoptosis
same,apoptosis based on c-caspase 3 levels,H358 cells (KRAS G12C),does not induce robust apoptosis
same,apoptosis based on cleaved PARP levels,H358 cells (KRAS G12C); [9],does not induce robust apoptosis
same,apoptosis based on cleaved PARP levels,H358 cells (KRAS G12C); [7],does not induce robust apoptosis
same,cell cycle arrest and induction of apoptosis (flow cytometry),H358 cells,G1 arrest with low to modest induction of apoptosis
"N#CCNC(=O)c1ccc(-c2ccnc(Nc3ccc(N4CCOCC4)cc3)n2)cc1 [momelotinib, reference compound]",apoptosis based on cleaved PARP levels,[3],does not induce robust apoptosis
